The test system of this test is P388. Kind of test: Cytotoxicity against mouse P388 cells. The class given is functional, cell-based.

≈ marks a conversion by molar mass, not a printed value.

On to `COC(CC1OC(=O)CC(O)CC(SC[C@H](NC(=O)CC[C@H](N)C(=O)O)C(=O)NCC(=O)O)CC(=O)C(C)C(OC)c2coc(n2)-c2coc(n2)-c2coc(n2)/C=C/CC(OC)C1C)C(C)CCC(=O)C(C)C(OC(C)=O)C(C)/C=C/N(C)C=O` (some centres not stated) [THIOMYCALOLIDE A], for which it took 0.018 µg/mL (≈ 0.0148 µM) to reach half-maximal inhibition (IC50).

For `COCC(OC)C(=O)OC(CCC(C)C(CC1OC(=O)CC(O)CC(SC[C@H](NC(=O)CC[C@H](N)C(=O)O)C(=O)NCC(=O)O)CC(=O)C(C)C(OC)c2coc(n2)-c2coc(n2)-c2coc(n2)/C=C/CC(OC)C1C)OC)C(C)C(OC(C)=O)C(C)/C=C/N(C)C=O` (some centres not stated) [THIOMYCALOLIDE B], half-maximal inhibition (IC50) required 0.018 µg/mL (≈ 0.0135 µM).

Values taken from ChEMBL document CHEMBL1150889, “Thiomycalolides: new cytotoxic trisoxazole-containing macrolides isolated from a marine sponge Mycale sp” (J Nat Prod, 1998).
